# Reference: patent US20250171438A1 (Agios Pharmaceuticals, Inc., priority 2022, published 2025)
# Molecular target: T1, human PAH with the R408W mutation (Homo sapiens, UniProt P00439, R408W)
# T1 construct: expressed in transfected cells
# T1 sequence (P00439 1-452 R408W): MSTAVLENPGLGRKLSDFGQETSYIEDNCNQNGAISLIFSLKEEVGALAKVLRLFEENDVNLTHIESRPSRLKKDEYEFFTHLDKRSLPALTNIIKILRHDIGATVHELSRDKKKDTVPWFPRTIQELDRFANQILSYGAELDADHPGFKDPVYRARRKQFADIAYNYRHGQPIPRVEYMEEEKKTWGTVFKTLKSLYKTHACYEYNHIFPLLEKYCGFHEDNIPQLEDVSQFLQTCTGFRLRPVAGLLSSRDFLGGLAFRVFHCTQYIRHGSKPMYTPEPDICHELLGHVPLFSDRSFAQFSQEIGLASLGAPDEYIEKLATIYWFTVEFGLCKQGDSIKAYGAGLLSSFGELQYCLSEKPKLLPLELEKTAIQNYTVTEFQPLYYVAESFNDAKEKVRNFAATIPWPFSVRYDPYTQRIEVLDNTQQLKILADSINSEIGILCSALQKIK
# Assay: Cell Based Phenylalanine Flux Assay
# Conditions: A375 cells expressing human R408W PAH; 24 hrs with compound; 13C-Tyrosine by LC-MS; average where tested multiple times; read-out: AC50
row,SMILES,AC50 [µM]
1,O=C(C1CN(c2ccccn2)C1)N1CCc2[nH]cnc2C1c1nc2ccccc2s1 (centres unmarked) [listing 1 of 2 here],> 5
2,CS(=O)(=O)N1CC(C(=O)N2CCc3[nH]cnc3C2c2nc3ccccc3s2)C1 (centres unmarked) [listing 1 of 2 here],> 5
3,Cc1nc(CCN2CC(F)C2)oc1C(=O)N1CCc2[nH]cnc2C1c1nc2ccccc2s1 (centres unmarked) [listing 1 of 2 here],> 5
4,COCc1ncc(C(=O)N2CCc3[nH]cnc3C2c2nc3ccccc3s2)o1 (centres unmarked) [listing 1 of 2 here],> 5
5,CS(=O)(=O)c1ncoc1C(=O)N1CCc2[nH]cnc2C1c1nc2ccccc2s1 (centres unmarked) [listing 1 of 2 here],> 5
6,O=C(c1nnc(CCN2CCOCC2)o1)N1CCc2[nH]cnc2C1c1nc2ccccc2s1 (centres unmarked) [listing 1 of 2 here],> 5
7,O=C(c1nnc(CCCN2CC(F)C2)o1)N1CCc2[nH]cnc2C1c1nc2ccccc2s1 (centres unmarked) [listing 1 of 2 here],> 5
8,Cn1ncc(C(=O)N2CCc3[nH]cnc3C2c2nc3c(F)cccc3s2)c1C#N (centres unmarked) [listing 1 of 2 here],> 5
9,Cc1cc(C(=O)N2CCc3[nH]cnc3C2c2nc3c(F)cccc3s2)n(-c2ccc(F)cc2)n1 (centres unmarked) [listing 1 of 2 here],> 5
10,COCc1cc(C(=O)N2CCc3[nH]cnc3C2c2nc3c(F)cccc3s2)n(C)n1 (centres unmarked) [listing 1 of 2 here],> 5
11,NC(=O)c1ncoc1C(=O)N1CCc2[nH]cnc2C1c1nc2ccccc2s1 (centres unmarked) [listing 1 of 2 here],> 5
12,N#Cc1nc(NCC(F)(F)F)oc1C(=O)N1CCc2[nH]cnc2C1c1nc2ccccc2s1 (centres unmarked) [listing 1 of 2 here],> 5
13,Cn1nc(N)cc1C(=O)N1CCc2[nH]cnc2C1c1nc2c(F)cccc2s1 (centres unmarked) [listing 1 of 2 here],> 5
14,Cn1nc(C#N)cc1C(=O)N1CCc2[nH]cnc2C1c1nc2c(F)cccc2s1 (centres unmarked) [listing 1 of 2 here],> 5
15,O=C(c1nnc(CCNC2CC2)o1)N1CCc2[nH]cnc2C1c1nc2ccccc2s1 (centres unmarked) [listing 1 of 2 here],> 5
16,CN(C)CCc1nnc(C(=O)N2CCc3[nH]cnc3C2c2nc3ccccc3s2)o1 (centres unmarked) [listing 1 of 2 here],> 5
17,Cc1nc(CCCN(C)C)oc1C(=O)N1CCc2[nH]cnc2C1c1nc2ccccc2s1 (centres unmarked) [listing 1 of 2 here],> 5
18,Cc1nc(CCN2CC(F)C2)oc1C(=O)N1CCc2[nH]cnc2C1c1nc2ccccc2s1 (centres unmarked) [listing 2 of 2 here],1 to 5
19,O=C(c1cc(Cl)n[nH]1)N1CCc2[nH]cnc2C1c1nc2c(F)cccc2s1 (centres unmarked),1 to 5
20,COC1CN(C(=O)N2CCc3[nH]cnc3C2c2nc3ccccc3s2)C1 (centres unmarked),1 to 5
21,Cc1noc(C(=O)N2CCc3[nH]cnc3C2c2nc3ccccc3s2)n1 (centres unmarked),1 to 5
22,CS(=O)(=O)c1ncoc1C(=O)N1CCc2[nH]cnc2C1c1nc2ccccc2s1 (centres unmarked) [listing 2 of 2 here],1 to 5
23,O=C(c1nnc(CCN2CC(F)C2)o1)N1CCc2[nH]cnc2C1c1nc2ccccc2s1 (centres unmarked) [listing 2 of 2 here],1 to 5
24,O=C(c1nnc(CCCN2CC(F)C2)o1)N1CCc2[nH]cnc2C1c1nc2ccccc2s1 (centres unmarked) [listing 2 of 2 here],1 to 5
25,O=C(c1nnc(CCCN2CCOCC2)o1)N1CCc2[nH]cnc2C1c1nc2ccccc2s1 (centres unmarked) [listing 2 of 2 here],1 to 5
26,O=C(c1nnc(C2CC(F)(F)C2)o1)N1CCc2[nH]cnc2C1c1nc2ccccc2s1 (centres unmarked),1 to 5

row,SMILES,AC50 [µM]
1,O=C(c1nnc(CCC(F)(F)F)o1)N1CCc2[nH]cnc2C1c1nc2ccccc2s1 (centres unmarked) [listing 2 of 2 here],1 to 5
2,COCc1nnc(C(=O)N2CCc3[nH]cnc3C2c2nc3ccccc3s2)o1 (centres unmarked),1 to 5
3,Cc1nc(C(=O)N2CCc3[nH]cnc3C2c2nc3ccccc3s2)no1 (centres unmarked),> 5
4,O=C(C1CC1(F)F)N1CCc2[nH]cnc2C1c1nc2c(F)cccc2s1 (centres unmarked),1 to 5
5,CC1(C)CN(C(=O)c2cnco2)C(c2nc3c(F)cccc3s2)c2nc[nH]c21 (centres unmarked),> 5
6,N#Cc1n[nH]cc1C(=O)N1CCc2[nH]cnc2C1c1nc2ccccc2s1 (centres unmarked),1 to 5
7,CN(C)CCn1cc(C(=O)N2CCc3[nH]cnc3C2c2nc3ccccc3s2)c(C#N)n1 (centres unmarked),1 to 5
8,Cc1cc(C(=O)N2CCc3[nH]cnc3C2c2nc3c(F)cccc3s2)n(-c2ccc(F)cc2)n1 (centres unmarked) [listing 2 of 2 here],1 to 5
9,O=C(c1ccn(-c2ccccn2)n1)N1CCc2[nH]cnc2C1c1nc2c(F)cccc2s1 (centres unmarked) [listing 2 of 2 here],1 to 5
10,Cn1nc(-c2ccccn2)cc1C(=O)N1CCc2[nH]cnc2C1c1nc2c(F)cccc2s1 (centres unmarked) [listing 2 of 2 here],1 to 5
11,COCc1cc(C(=O)N2CCc3[nH]cnc3C2c2nc3c(F)cccc3s2)n(C)n1 (centres unmarked) [listing 2 of 2 here],1 to 5
12,CN(C)Cc1nc(C#N)c(C(=O)N2CCc3[nH]cnc3C2c2nc3ccccc3s2)o1 (centres unmarked),1 to 5
13,NC(=O)c1ncoc1C(=O)N1CCc2[nH]cnc2C1c1nc2ccccc2s1 (centres unmarked) [listing 2 of 2 here],1 to 5
14,Cn1nc(N)cc1C(=O)N1CCc2[nH]cnc2C1c1nc2c(F)cccc2s1 (centres unmarked) [listing 2 of 2 here],1 to 5
15,Cc1nc(CCCN(C)C)oc1C(=O)N1CCc2[nH]cnc2C1c1nc2ccccc2s1 (centres unmarked) [listing 2 of 2 here],1 to 5
16,Cn1nc(CO)cc1C(=O)N1CCc2[nH]cnc2C1c1nc2c(F)cccc2s1 (centres unmarked),1 to 5
17,CN(C)Cc1nc(C(=O)N2CCc3[nH]cnc3C2c2nc3ccccc3s2)no1 (centres unmarked) [listing 2 of 2 here],1 to 5
18,CN(C)Cc1ncc(C(=O)N2CCc3[nH]cnc3C2c2nc3ccccc3s2)o1 (centres unmarked),1 to 5
19,Cc1nc(-c2ccccn2)oc1C(=O)N1CC2(CC2)c2[nH]cnc2C1c1nc2ccccc2s1 (centres unmarked),> 5
20,COCc1ccc2c(C(=O)N3CC4(CC4)c4[nH]cnc4C3c3nc4ccccc4s3)cnn2c1 (centres unmarked) [listing 1 of 2 here],> 5
21,Cc1ncoc1C(=O)N1CC2(CC2)c2[nH]cnc2C1c1nc2c(F)cccc2s1 (centres unmarked) [listing 1 of 2 here],> 5
22,Cc1nc(C(C)(C)O)oc1C(=O)N1CC2(CC2)c2[nH]cnc2C1c1nc2ccccc2s1 (centres unmarked) [listing 2 of 2 here],1 to 5
23,O=C(c1cnco1)N1CC2(CC2)c2[nH]cnc2C1c1nc2ccccc2s1 (centres unmarked) [listing 2 of 2 here],1 to 5
24,COCc1ccc2c(C(=O)N3CC4(CC4)c4[nH]cnc4C3c3nc4ccccc4s3)cnn2c1 (centres unmarked) [listing 2 of 2 here],1 to 5
25,CN(C)Cc1ccc2c(C(=O)N3CC4(CC4)c4[nH]cnc4C3c3nc4ccccc4s3)cnn2c1 (centres unmarked) [listing 2 of 2 here],1 to 5

# Further lines, results first:
row,AC50 [µM],SMILES
1,> 5,O=C(c1cnco1)N1CCCc2[nH]cnc2C1c1nc2ccccc2s1 (centres unmarked)
2,> 5,Cc1nc(CCC2CC2)oc1C(=O)N1CCCc2[nH]cnc2C1c1nc2ccccc2s1 (centres unmarked)
3,> 5,COCCc1ncc(C(=O)N2CCc3[nH]cnc3C2c2nc3ccccc3s2)o1 (centres unmarked) [listing 1 of 2 here]
4,> 5,O=C(c1nnc(CCN2CC(F)C2)o1)N1CCc2[nH]cnc2C1c1nc2ccccc2s1 (centres unmarked) [listing 1 of 2 here]
5,> 5,O=C(c1nnc(CCCN2CCOCC2)o1)N1CCc2[nH]cnc2C1c1nc2ccccc2s1 (centres unmarked) [listing 1 of 2 here]
6,> 5,O=C(c1nnc(CCC(F)(F)F)o1)N1CCc2[nH]cnc2C1c1nc2ccccc2s1 (centres unmarked) [listing 1 of 2 here]
7,> 5,Cn1ncc(C(=O)N2CCc3[nH]cnc3C2c2nc3c(F)cccc3s2)c1Cl (centres unmarked) [listing 1 of 2 here]
8,> 5,O=C(c1ccn(-c2ccccn2)n1)N1CCc2[nH]cnc2C1c1nc2c(F)cccc2s1 (centres unmarked) [listing 1 of 2 here]
9,> 5,Cn1nc(-c2ccccn2)cc1C(=O)N1CCc2[nH]cnc2C1c1nc2c(F)cccc2s1 (centres unmarked) [listing 1 of 2 here]
10,> 5,CN(C)Cc1nc(C(=O)N2CCc3[nH]cnc3C2c2nc3ccccc3s2)no1 (centres unmarked) [listing 1 of 2 here]
11,1 to 5,O=C(C1CN(c2ccc(Cl)cc2)C1)N1CCc2[nH]cnc2C1c1nc2ccccc2s1 (centres unmarked)
12,1 to 5,O=C(C1CN(c2ccccn2)C1)N1CCc2[nH]cnc2C1c1nc2ccccc2s1 (centres unmarked) [listing 2 of 2 here]
13,1 to 5,CS(=O)(=O)N1CC(C(=O)N2CCc3[nH]cnc3C2c2nc3ccccc3s2)C1 (centres unmarked) [listing 2 of 2 here]
14,1 to 5,COCCc1ncc(C(=O)N2CCc3[nH]cnc3C2c2nc3ccccc3s2)o1 (centres unmarked) [listing 2 of 2 here]
15,> 5,O=C(c1oc(C=CC2CC2)nc1C(F)(F)F)N1CCCc2[nH]cnc2C1c1nc2ccccc2s1 (centres unmarked)
16,1 to 5,COCc1ncc(C(=O)N2CCc3[nH]cnc3C2c2nc3ccccc3s2)o1 (centres unmarked) [listing 2 of 2 here]
17,1 to 5,Cn1nc(-c2ccc(Cl)cc2)cc1C(=O)N1CCc2[nH]cnc2C1c1nc2c(F)cccc2s1 (centres unmarked)
18,1 to 5,O=C(c1nnc(CCN2CCOCC2)o1)N1CCc2[nH]cnc2C1c1nc2ccccc2s1 (centres unmarked) [listing 2 of 2 here]
19,1 to 5,O=C(c1nnc(N2CC(F)C2)o1)N1CCc2[nH]cnc2C1c1nc2ccccc2s1 (centres unmarked)
20,1 to 5,CN1CCN(c2nnc(C(=O)N3CCc4[nH]cnc4C3c3nc4ccccc4s3)o2)CC1 (centres unmarked)
21,1 to 5,Cn1ncc(C(=O)N2CCc3[nH]cnc3C2c2nc3c(F)cccc3s2)c1Cl (centres unmarked) [listing 2 of 2 here]

row,AC50 [µM],SMILES
1,> 5,CN(C)CCn1ncc(C(=O)N2CCc3[nH]cnc3C2c2nc3ccccc3s2)c1C#N (centres unmarked)
2,1 to 5,Cn1ncc(C(=O)N2CCc3[nH]cnc3C2c2nc3c(F)cccc3s2)c1C#N (centres unmarked) [listing 2 of 2 here]
3,1 to 5,O=C(C1CN(c2ccccn2)C1)N1CCc2[nH]cnc2C1c1nc2c(F)cccc2s1 (centres unmarked)
4,1 to 5,COCc1ncc(C(=O)N2CCc3[nH]cnc3C2c2nc3c(F)cccc3s2)o1 (centres unmarked)
5,1 to 5,O=C(c1nnc(-c2ccc(C(F)(F)F)cc2)o1)N1CCc2[nH]cnc2C1c1nc2c(F)cccc2s1 (centres unmarked)
6,1 to 5,COCCNc1nnc(C(=O)N2CCc3[nH]cnc3C2c2nc3ccccc3s2)o1 (centres unmarked)
7,1 to 5,N#Cc1nc(NCC(F)(F)F)oc1C(=O)N1CCc2[nH]cnc2C1c1nc2ccccc2s1 (centres unmarked) [listing 2 of 2 here]
8,> 5,Cc1nc(NC2CC2)oc1C(=O)N1CCCc2[nH]cnc2C1c1nc2ccccc2s1 (centres unmarked)
9,1 to 5,Cn1nc(C#N)cc1C(=O)N1CCc2[nH]cnc2C1c1nc2c(F)cccc2s1 (centres unmarked) [listing 2 of 2 here]
10,1 to 5,O=C(c1nnc(CCNC2CC2)o1)N1CCc2[nH]cnc2C1c1nc2ccccc2s1 (centres unmarked) [listing 2 of 2 here]
11,1 to 5,CN(C)CCc1nnc(C(=O)N2CCc3[nH]cnc3C2c2nc3ccccc3s2)o1 (centres unmarked) [listing 2 of 2 here]
12,> 5,CN(C)Cc1cc(C(=O)N2CCc3[nH]cnc3C2c2nc3c(F)cccc3s2)n(C)n1 (centres unmarked)
13,1 to 5,COC(=O)N1CC(C(=O)N2CCc3[nH]cnc3C2c2nc3ccccc3s2)C1 (centres unmarked)
14,1 to 5,COC(=O)N1CC(C(=O)N2CCc3[nH]cnc3C2c2nc3c(F)cccc3s2)C1 (centres unmarked)
15,> 5,Cc1nc(C(C)(C)O)oc1C(=O)N1CC2(CC2)c2[nH]cnc2C1c1nc2ccccc2s1 (centres unmarked) [listing 1 of 2 here]
16,> 5,O=C(c1cnco1)N1CC2(CC2)c2[nH]cnc2C1c1nc2ccccc2s1 (centres unmarked) [listing 1 of 2 here]
17,> 5,O=C(c1ocnc1CO)N1CC2(CC2)c2[nH]cnc2C1c1nc2ccccc2s1 (centres unmarked) [listing 1 of 2 here]
18,> 5,CN(C)Cc1ccc2c(C(=O)N3CC4(CC4)c4[nH]cnc4C3c3nc4ccccc4s3)cnn2c1 (centres unmarked) [listing 1 of 2 here]
19,1 to 5,Cc1ncoc1C(=O)N1CC2(CC2)c2[nH]cnc2C1c1nc2c(F)cccc2s1 (centres unmarked) [listing 2 of 2 here]
20,1 to 5,O=C(c1ocnc1CO)N1CC2(CC2)c2[nH]cnc2C1c1nc2ccccc2s1 (centres unmarked) [listing 2 of 2 here]
